Assay results reported in patent publication US8729089B2 (Gilead Sciences, Inc., priority 2006, dated 2014).

How the values were obtained:
[1] = test system: HCV replicon in human hepatoma Huh-7 cell line; assay: Anti-HCV replicon assay (EC50, luciferase); format: cell-based
Outline: (§1)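 Huh-7 cells carrying an HCV replicon (6000/well) exposed to 3-fold serial compound dilutions for 3 days at 37 °C, final DMSO 0.5% where used. EC50 read as replicon luciferase luminescence after cell lysis; CC50 from CellTiter-Glo luminescence after 10 min at room temperature.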

Huh-7 HCV replicon cells = assay: CC50 assay (CellTiter-Glo) in Huh-7 HCV replicon cells; format: cell-based, human; settings: 3 days incubation, CellTiter-Glo readout
Outline: as §1

[2] = as above; format: cell-based, human; settings: human, 3 days incubation, CellTiter-Glo readout
Outline: as §1

[3] = Huh-7 HCV replicon cells, 3 days incubation, luciferase readout

In the case of `CC(Nc1nc(NCC(F)(F)F)c2nc(-c3ccc(F)cc3)ccc2n1)c1ccc(S(N)(=O)=O)cc1` (stereo not drawn) [Example 250, 4-{1-[6-(4-Fluoro-phenyl)-4-(2,2,2-trifluoro-ethylamino)-pyrido[3,2-d]pyrimidin-2-ylamino]-ethyl}-benzenesulfonamide], the EC50 [1, 3] is reported as less than 0.1 µM and the CC50 (Huh-7 HCV replicon cells) is reported as less than 5 µM.

Work on `CCOc1nc(NCc2ccc(C(N)=O)cc2)nc2ccc(-c3ccc(F)cc3)nc12` [Example 268, 4-{[4-Ethoxy-6-(4-fluoro-phenyl)-pyrido[3,2-d]pyrimidin-2-ylamino]-methyl}-benzamide] yielded an EC50 ([1]; Hepatitis C virus, Huh-7, 72 h) of less than 0.1 µM and a CC50 at 3 days [2] of 5 to 25 µM.

Work on `CC(C)(O)CNc1nc(NCc2ccc(F)cc2)nc2ccc(-c3ccc(F)cc3)nc12` [Example 25, 1-[2-(4-Fluoro-benzylamino)-6-(4-fluoro-phenyl)-pyrido[3,2-d]pyrimidin-4-ylamino]-2-methyl-propan-2-ol] yielded an EC50 ([1]; Hepatitis C virus, Huh-7, 72 h) of less than 0.1 µM and a CC50 at 3 days [2] of less than 5 µM.

`CC(C)(C)OC(=O)N1CCC(NS(=O)(=O)c2cc(-c3ccc4nc(NCc5ccc(S(N)(=O)=O)cc5)nc(NCC(F)(F)F)c4n3)ccc2F)CC1` [Example 215, 4-{2-Fluoro-5-[2-(4-sulfamoyl-benzylamino)-4-(2,2,2-trifluoro-ethylamino)-pyrido[3,2-d]pyrimidin-6-yl]-benzenesulfonylamino}-piperidine-1-carboxylic acid tert-butyl ester] showed an EC50 ([1]; Hepatitis C virus, Huh-7, 72 h) of less than 0.1 µM and a CC50 at 3 days [2] of 5 to 25 µM.

`CCOc1nc(NCc2ccc(F)cc2)nc2ccc(-c3ccc(NC(=O)CO)cc3)nc12` [Example 69, N-{4-[4-Ethoxy-2-(4-fluoro-benzylamino)-pyrido[3,2-d]pyrimidin-6-yl]-phenyl}-2-hydroxy-acetamide] gave an EC50 ([1]; Hepatitis C virus, Huh-7, 72 h) of less than 0.1 µM and a CC50 at 3 days [2] greater than 25 µM.

For `CN1CCN(c2ccc(CNc3nc(NCC(F)(F)F)c4nc(-c5ccc(F)cc5)ccc4n3)cc2)CC1` [Example 240, 6-(4-Fluoro-phenyl)-N2-[4-(4-methyl-piperazin-1-yl)-benzyl]-N4-(2,2,2-trifluoro-ethyl)-pyrido[3,2-d]pyrimidine-2,4-diamine], the EC50 ([1]; Hepatitis C virus, Huh-7, 72 h) was less than 0.1 µM and the CC50 at 3 days [2] was less than 5 µM.

`CN(CCS(C)(=O)=O)c1nc(NCc2ccc(F)cc2)nc2ccc(-c3cccc(N(CCO)S(C)(=O)=O)c3)nc12` [Example 279, N-(3-{2-(4-Fluoro-benzylamino)-4-[(2-methanesulfonyl-ethyl)-methyl-amino]-pyrido[3,2-d]pyrimidin-6-yl}-phenyl)-N-(2-hydroxy-ethyl)-methanesulfonamide] showed an EC50 ([1]; Hepatitis C virus, Huh-7, 72 h) of less than 0.1 µM and a CC50 at 3 days [2] of 5 to 25 µM.

`CCOc1nc(NCc2ccc(F)cc2)nc2ccc(-c3cccc(NS(=O)(=O)N(C)C)c3)nc12` [Example 84, N′-{3-[4-Ethoxy-2-(4-fluoro-benzylamino)-pyrido[3,2-d]pyrimidin-6-yl]-phenyl}-N.N-dimethyl methanesulfonyl urea] gave an EC50 ([1]; Hepatitis C virus, Huh-7, 72 h) of less than 0.1 µM and a CC50 at 3 days [2] of less than 5 µM.

Compound `COCCNS(=O)(=O)c1cc(-c2ccc3nc(NCc4ccc(S(N)(=O)=O)cc4)nc(NCC(F)(F)F)c3n2)ccc1Cl` [Example 198, 2-Chloro-N-(2-methoxy-ethyl)-5-[2-(4-sulfamoyl-benzylamino)-4-(2,2,2-trifluoro-ethylamino)-pyrido[3,2-d]pyrimidin-6-yl]-benzenesulfonamide] has an EC50 ([1]; Hepatitis C virus, Huh-7, 72 h) of less than 0.1 µM and a CC50 at 3 days [2] of 5 to 25 µM.

For `CCOc1nc(NCc2cccc(Cl)c2F)nc2ccc(-c3ccc(F)cc3)nc12` [Example 48, (3-Chloro-2-fluoro-benzyl)-[4-ethoxy-6-(4-fluoro-phenyl)-pyrido[3,2-d]pyrimidin-2-yl]-amine], the EC50 ([1]; Hepatitis C virus, Huh-7, 72 h) was less than 0.1 µM and the CC50 at 3 days [2] was greater than 25 µM.

`CCOc1nc(NCc2cccnc2)nc2ccc(-c3ccc(F)cc3)nc12` [Example 263, [4-Ethoxy-6-(4-fluoro-phenyl)-pyrido[3,2-d]pyrimidin-2-yl]-pyridin-3-ylmethyl-amine] gave an EC50 ([1]; Hepatitis C virus, Huh-7, 72 h) of less than 0.1 µM and a CC50 at 3 days [2] greater than 25 µM.

`NS(=O)(=O)c1ccc(CNc2nc(NCC(F)(F)F)c3nc(-c4cnc(N5CCCC5)cn4)ccc3n2)cc1` [Example 167, 4-{[6-(5-Pyrrolidin-1-yl-pyrazin-2-yl)-4-(2,2,2-trifluoro-ethylamino)-pyrido[3,2-d]pyrimidin-2-ylamino]-methyl}-benzenesulfonamide] showed an EC50 ([1]; Hepatitis C virus, Huh-7, 72 h) of less than 0.1 µM and a CC50 at 3 days [2] of less than 5 µM.

Compound `CCOc1nc(NCc2ccc(S(N)(=O)=O)cc2)nc2ccc(-c3ccc(NC(=O)NCCN4CCCC4)cc3)nc12` [Example 124, 4-{[4-Ethoxy-6-(4-(3-(2-(pyrrolidin-1-yl)ethyl)ureido)-phenyl)-pyrido[3,2-d]pyrimidin-2-ylamino]-methyl}-benzenesulfonamide] has an EC50 ([1]; Hepatitis C virus, Huh-7, 72 h) of less than 0.1 µM and a CC50 at 3 days [2] of 5 to 25 µM.

Compound `CC(C)(N)C(=O)Nc1ccc(-c2ccc3nc(NCc4ccc(F)cc4)nc(NCC(F)(F)F)c3n2)cc1` [Example 277, 2-Amino-N-{4-[2-(4-fluoro-benzylamino)-4-(2,2,2-trifluoro-ethylamino)-pyrido[3,2-d]pyrimidin-6-yl]-phenyl}-2-methyl-propionamide] has an EC50 ([1]; Hepatitis C virus, Huh-7, 72 h) of less than 0.1 µM and a CC50 at 3 days [2] of less than 5 µM.

In the case of `NC(=O)Nc1ccc(-c2ccc3nc(NCc4ccc(S(N)(=O)=O)cc4)nc(C4CC4)c3n2)cc1` [Example 290, 4-{[4-Cyclopropyl-6-(4-ureido-phenyl)-pyrido[3,2-d]pyrimidin-2-ylamino]-methyl}-benzenesulfonamide], the EC50 ([1]; Hepatitis C virus, Huh-7, 72 h) is reported as less than 0.1 µM and the CC50 at 3 days [2] is reported as 5 to 25 µM.

With `CS(=O)(=O)CCNc1nc(NCc2ccc(S(N)(=O)=O)cc2)nc2ccc(-c3ccc(NC(=O)C4(O)CC4)cc3)nc12` [Example 155, 4-{[4-(2-Methanesulfonylethyl)-amino-6-(4-((1-hydroxy-1-cyclopropyl)-carboxamido)-phenyl)-pyrido[3,2-d]pyrimidin-2-ylamino]-methyl}-benzenesulfonamide] the EC50 ([1]; Hepatitis C virus, Huh-7, 72 h) was 0.1 to 0.25 µM and the CC50 at 3 days [2] was greater than 25 µM.

Work on `CC(Nc1nc(NCC(F)(F)F)c2nc(-c3ccc(F)cc3)ccc2n1)c1ccc(S(N)(=O)=O)cc1` (stereo not drawn) [Example 257, 4-{1-[6-(4-Fluoro-phenyl)-4-(2,2,2-trifluoro-ethylamino)-pyrido[3,2-d]pyrimidin-2-ylamino]-ethyl}-benzenesulfonamide] yielded an EC50 [1, 3] of less than 0.1 µM and a CC50 (Huh-7 HCV replicon cells) of 5 to 25 µM.

For `CCOc1nc(NCc2ccc(F)cc2)nc2ccc(-c3cccc(N(CCO)S(C)(=O)=O)c3)nc12` [Example 102, N-{3-[4-Ethoxy-2-(4-fluoro-benzylamino)-pyrido[3,2-d]pyrimidin-6-yl]-phenyl}-N-(2-hydroxy-ethyl)-methanesulfonamide], the EC50 ([1]; Hepatitis C virus, Huh-7, 72 h) was less than 0.1 µM and the CC50 at 3 days [2] was 5 to 25 µM.

In the case of `COC(=O)Nc1ccc(-c2ccc3nc(NCc4ccc(S(N)(=O)=O)cc4)nc(NCC(F)(F)F)c3n2)cc1` [Example 211, {4-[2-(4-Sulfamoyl-benzylamino)-4-(2,2,2-trifluoro-ethylamino)-pyrido[3,2-d]pyrimidin-6-yl]-phenyl}-carbamic acid methyl ester], the EC50 ([1]; Hepatitis C virus, Huh-7, 72 h) is reported as less than 0.1 µM and the CC50 at 3 days [2] is reported as 5 to 25 µM.

Work on `CCNc1nc(NCc2ccc(F)cc2)nc2ccc(-c3ccc(F)cc3)nc12` [Example 30, N4-Ethyl-N2-(4-fluoro-benzyl)-6-(4-fluoro-phenyl)-pyrido[3,2-d]pyrimidine-2,4-diamine] yielded an EC50 ([1]; Hepatitis C virus, Huh-7, 72 h) of less than 0.1 µM and a CC50 at 3 days [2] of 5 to 25 µM.

For `CCOc1nc(NCc2ccc(F)cc2)nc2ccc(-c3ccc(NC(=O)C4(N)CC4)cc3)nc12` [Example 99, 1-Amino-cyclopropanecarboxylic acid {4-[4-ethoxy-2-(4-fluoro-benzylamino)-pyrido[3,2-d]pyrimidin-6-yl]-phenyl}-amide], the EC50 ([1]; Hepatitis C virus, Huh-7, 72 h) was less than 0.1 µM and the CC50 at 3 days [2] was less than 5 µM.

`CC(C)Nc1nc(Nc2ccccc2)nc2ccc(-c3ccc(F)cc3)nc12` [Example 50, 6-(4-Fluoro-phenyl)-N4-isopropyl-N2-phenyl-pyrido[3,2-d]pyrimidine-2,4-diamine] gave an EC50 ([1]; Hepatitis C virus, Huh-7, 72 h) of 0.25 to 2 µM and a CC50 at 3 days [2] greater than 25 µM.

For `NC(=O)c1ccc(-c2ccc3nc(NCc4ccc(S(N)(=O)=O)cc4)nc(C4CC4)c3n2)cc1` [Example 292, 4-[4-Cyclopropyl-2-(4-sulfamoyl-benzylamino)-pyrido[3,2-d]pyrimidin-6-yl]-benzamide], the EC50 ([1]; Hepatitis C virus, Huh-7, 72 h) was less than 0.1 µM and the CC50 at 3 days [2] was 5 to 25 µM.

Work on `Fc1ccc(CNc2nc(N[C@@H]3CCOC3)c3nc(-c4ccc(F)cc4)ccc3n2)cc1` [Example 298, N2-(4-Fluoro-benzyl)-6-(4-fluoro-phenyl)-N4-(tetrahydro-furan-3-yl)-pyrido[3,2-d]pyrimidine-2,4-diamine] yielded an EC50 ([1]; Hepatitis C virus, Huh-7, 72 h) of less than 0.1 µM and a CC50 at 3 days [2] of 5 to 25 µM.
